Experimental data as given in patent US9839668B2, “Compositions and methods for the treatment of diseases related to the renin-angiotensin-system” (ATTOQUANT DIAGNOSTICS GMBH, priority 2013, dated 2017).
One block for each compound: values may come before it.

Experiments:
[1] = molecular target: T1, APA in the brain (Rattus norvegicus, UniProt P50123); details: via inhibition of APA by active metabolite EC-33 in the brain; cited from earlier work
T1 construct: host or cells: brain, in vivo

[2] = test system: Balb/c mice; assay: Plasma Ang 1-8 and Ang 1-7 levels in Balb/c mice after intra-peritoneal injection, LC-MS/MS; type: in vivo, mouse
Method: Mice were sacrificed 4 h following drug administration and blood was collected in the presence of protease inhibitors suitable for stabilization of angiotensin peptides in the collected sample. Following centrifugation of blood at 2500 g for 5 min at 4° C., Ang 1-8 and Ang 1-7 was quantified in the plasma samples by LC-MS/MS analysis.

[3] = molecular target: APN (EC 3.4.11.2) (Homo sapiens, UniProt P15144); details: APN vs APA; cited from earlier work
Sequence of APN (EC 3.4.11.2) (P15144 whole entry, species assumed): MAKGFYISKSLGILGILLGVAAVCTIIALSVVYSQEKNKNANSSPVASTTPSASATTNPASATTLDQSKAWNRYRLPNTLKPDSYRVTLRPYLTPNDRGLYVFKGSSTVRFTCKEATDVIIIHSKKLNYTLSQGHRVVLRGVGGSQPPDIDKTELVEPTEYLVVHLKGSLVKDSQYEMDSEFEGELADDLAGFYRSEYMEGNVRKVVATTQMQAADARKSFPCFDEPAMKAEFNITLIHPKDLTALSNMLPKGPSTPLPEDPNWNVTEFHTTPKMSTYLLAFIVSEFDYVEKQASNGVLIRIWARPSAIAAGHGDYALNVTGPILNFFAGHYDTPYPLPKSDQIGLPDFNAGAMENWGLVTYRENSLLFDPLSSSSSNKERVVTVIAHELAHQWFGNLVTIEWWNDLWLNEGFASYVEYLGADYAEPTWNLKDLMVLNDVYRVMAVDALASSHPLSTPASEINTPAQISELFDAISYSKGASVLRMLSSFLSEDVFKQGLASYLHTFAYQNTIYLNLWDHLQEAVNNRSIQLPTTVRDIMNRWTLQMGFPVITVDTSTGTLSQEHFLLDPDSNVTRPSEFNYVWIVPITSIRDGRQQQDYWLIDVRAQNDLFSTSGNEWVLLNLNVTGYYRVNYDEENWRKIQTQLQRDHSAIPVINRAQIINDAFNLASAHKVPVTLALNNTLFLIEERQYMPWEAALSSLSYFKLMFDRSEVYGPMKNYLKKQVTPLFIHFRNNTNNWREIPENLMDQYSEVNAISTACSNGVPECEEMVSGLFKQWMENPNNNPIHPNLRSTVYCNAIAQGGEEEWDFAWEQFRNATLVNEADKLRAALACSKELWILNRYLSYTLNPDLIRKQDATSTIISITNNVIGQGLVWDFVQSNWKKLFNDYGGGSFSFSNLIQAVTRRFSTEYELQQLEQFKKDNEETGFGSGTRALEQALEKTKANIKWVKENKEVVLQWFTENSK

[4] = test system: SHR rats; assay: Systolic blood pressure in male SHR rats, tail-cuff method; type: in vivo, rat; details: day 7, mean +/-SEM
Method: Twenty male 16-week-old SHR rats were used for investigation of short-term effects of the new drug combination on systolic blood pressure. Prior to starting the treatment procedure, rats were conditioned to the experimental procedure by daily blood pressure measurements using the tail-cuff method for 1 week. […] Daily blood pressure measurements were performed 4 h following drug administration and continued throughout the whole treatment period. Blood-pressure data were evaluated by calculating the relative change in systolic blood pressure compared to the vehicle group at day 7 of drug administration. Statistical comparison between the groups was conducted by using Student's T-test.
Mean body weight and baseline systolic blood pressure of SHR rats were determined at the beginning of the treatment period resulting in a mean body weight of 283 g and mean systolic blood pressure of 196 mmHg. Following 7 days of daily oral administration of different compounds and compound combinations, systolic blood pressure was monitored by tail-cuff method and the relative changes compared to vehicle treated control rats (V) mean values are shown with corresponding standard errors of the mean (+/−SEM) (FIG. 1).

[5] = test system: human APA in plasma; assay: Ex vivo APA activity and Ang 1-8 levels in human heparin plasma plus recombinant human renin; type: biochemical
Method: (§1) APA activity was determined by measuring Ang 2-8 formation using LC-MS/MS. The Ang 2-8 formation rate is given in pg Ang 2-8/ml per minute. […] Following the incubation period, samples were cooled on ice, stabilized by the addition of protease inhibitors and analyzed for Ang 1-8 levels by LC-MS/MS.

[6] = molecular target: T2, APA (recombinant human ENPEP) (Homo sapiens, UniProt Q07075); assay: In vitro APA activity assay: conversion of Ang 1-8 to Ang 2-8, LC-MS/MS; type: biochemical; details: 0.1 μM Amastatin, 1 μg/ml APA
T2 construct: purchased R&D 2499-ZN
T2 sequence (Q07075 whole entry): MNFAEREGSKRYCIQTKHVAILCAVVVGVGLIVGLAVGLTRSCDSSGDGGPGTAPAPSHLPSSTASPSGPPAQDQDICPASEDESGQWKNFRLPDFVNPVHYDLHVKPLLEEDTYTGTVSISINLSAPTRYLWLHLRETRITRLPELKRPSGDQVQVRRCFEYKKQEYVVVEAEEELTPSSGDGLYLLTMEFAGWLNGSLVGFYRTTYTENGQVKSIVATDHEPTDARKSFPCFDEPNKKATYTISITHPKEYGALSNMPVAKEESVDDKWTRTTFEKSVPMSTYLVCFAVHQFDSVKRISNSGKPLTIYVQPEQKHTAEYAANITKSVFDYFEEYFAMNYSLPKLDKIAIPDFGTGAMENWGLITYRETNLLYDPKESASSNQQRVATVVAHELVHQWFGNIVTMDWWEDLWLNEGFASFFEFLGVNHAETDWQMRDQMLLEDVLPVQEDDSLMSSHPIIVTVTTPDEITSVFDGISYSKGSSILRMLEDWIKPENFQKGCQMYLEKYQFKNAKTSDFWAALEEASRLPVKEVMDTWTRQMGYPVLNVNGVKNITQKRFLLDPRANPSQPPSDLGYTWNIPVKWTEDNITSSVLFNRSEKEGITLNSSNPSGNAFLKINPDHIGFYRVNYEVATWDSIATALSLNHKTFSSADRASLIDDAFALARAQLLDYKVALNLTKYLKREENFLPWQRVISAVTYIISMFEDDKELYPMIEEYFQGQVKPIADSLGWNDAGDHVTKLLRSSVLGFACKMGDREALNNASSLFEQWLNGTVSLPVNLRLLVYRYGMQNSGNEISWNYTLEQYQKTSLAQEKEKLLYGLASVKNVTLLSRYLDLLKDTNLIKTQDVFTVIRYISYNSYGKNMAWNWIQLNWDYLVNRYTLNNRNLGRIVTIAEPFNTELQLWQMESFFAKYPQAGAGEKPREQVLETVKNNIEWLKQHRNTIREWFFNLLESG
Method: as §1

[7] = test system: Ang 1-8 and Ang 1-7 levels in human whole blood; assay: Ang 1-8 and Ang 1-7 levels in human heparinized whole blood plus recombinant human renin, ex vivo, LC-MS/MS; type: biochemical; details: human whole blood + 100 pg/ml renin, 60 min 37° C., ACE inhibitors 10 μM; for Ang 1-7 level: vehicle control 27 pg/ml; for Ang 1-8 level: vehicle control 686 pg/ml
Method: Blood was collected from a human healthy volunteer using a standard heparin blood collection tube. Recombinant human renin was added to whole blood at a concentration of 100 pg/ml in order to simulate RAS hyper-activation. Drugs and combinations were added to different plasma samples at indicated final concentrations and combinations (FIG. 2) using appropriate solvent controls for each compound or combination tested. Following an incubation period of 60 min at 37° C., samples were stabilized by addition of protease inhibitors and Ang 1-8 and Ang 1-7 levels were measured by mass spectrometry.
Ang 1-8 and Ang 1-7 levels were measured following 1 h of incubating the compounds with human heparinized whole blood (plus recombinant human renin) at 37° C.

[8] = test system: SHR rat; details: one SHR rat, i.v. 50 μmol/kg Lisinopril then 20 μmol/kg Amastatin, blood 10 min after each infusion
Method: A male SHR rat was anesthetized by isoflurane followed by preparation of the jugular vein and insertion of an infusion catheter. At the beginning of the experiment (t=0 min) 200 μl of phosphate buffered saline was infused into the jugular vein within a period of 15 seconds. 10 min following saline infusion, 500 μl heparin blood was collected from the tail vein and placed on ice. Another 10 min later (t=20 min) a dose of 50 μmol/kg Lisinopril was in fused in a volume of 200 μl phosphate buffered saline, followed by another tail vein heparin blood collection of 500 μl heparin blood 10 min after Lisinopril infusion. […] Following centrifugation of blood at 2500 g for 5 min at 4° C., Ang 1-8 and Ang 1-7 was quantified in the plasma samples by LC-MS/MS analysis.

[9] = test system: rats; details: administered to the periphery by intravenous injection in rats; cited from earlier work
[10] = test system: APA over APN; details: cited from earlier work

T1 sequence (P50123 whole entry): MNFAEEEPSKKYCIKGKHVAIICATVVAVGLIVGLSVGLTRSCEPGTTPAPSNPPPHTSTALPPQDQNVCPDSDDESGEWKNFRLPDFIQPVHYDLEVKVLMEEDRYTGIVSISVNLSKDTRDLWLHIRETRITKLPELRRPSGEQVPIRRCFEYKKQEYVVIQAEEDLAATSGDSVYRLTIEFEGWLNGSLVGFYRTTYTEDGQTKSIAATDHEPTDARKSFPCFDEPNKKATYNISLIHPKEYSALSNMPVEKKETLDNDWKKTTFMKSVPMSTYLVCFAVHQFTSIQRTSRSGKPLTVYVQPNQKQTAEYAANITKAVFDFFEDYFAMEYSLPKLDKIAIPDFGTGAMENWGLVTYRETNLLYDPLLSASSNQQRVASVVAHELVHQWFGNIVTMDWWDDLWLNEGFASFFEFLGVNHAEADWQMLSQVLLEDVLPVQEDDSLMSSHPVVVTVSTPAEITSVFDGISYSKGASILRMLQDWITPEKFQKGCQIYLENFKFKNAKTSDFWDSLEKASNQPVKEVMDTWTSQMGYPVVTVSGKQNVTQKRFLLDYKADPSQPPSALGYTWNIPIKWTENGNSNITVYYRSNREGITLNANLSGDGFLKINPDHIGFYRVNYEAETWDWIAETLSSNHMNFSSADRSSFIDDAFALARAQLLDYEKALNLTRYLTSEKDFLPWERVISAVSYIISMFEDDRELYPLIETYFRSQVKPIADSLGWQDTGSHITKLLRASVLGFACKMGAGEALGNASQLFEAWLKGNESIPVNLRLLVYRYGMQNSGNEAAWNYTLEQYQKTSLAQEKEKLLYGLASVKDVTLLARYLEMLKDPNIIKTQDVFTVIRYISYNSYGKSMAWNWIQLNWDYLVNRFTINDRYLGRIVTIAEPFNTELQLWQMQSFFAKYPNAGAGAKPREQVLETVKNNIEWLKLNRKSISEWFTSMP

Structure (SMILES): N[C@@H](CCS(=O)(=O)O)CSSC[C@@H](N)CCS(=O)(=O)O [RB150]
effect on blood pressure [1]: effective in lowering blood pressure

effect on APA activity in vitro [6]: did not affect APA activity in vitro
Ang 2-8 formation rate ([6]; 100 ng/ml Ang 1-8, 37° C. 10 min, 971 without Amastatin): 1077 pg Ang 2-8/ml per minute
Structure (SMILES): CC(C)C[C@@H](N)[C@H](O)C(=O)N[C@H](C(=O)N[C@H](C(=O)N[C@@H](CC(=O)O)C(=O)O)C(C)C)C(C)C [Amastatin]
change in circulating Ang 1-8 ([2]; 40 mg/kg i.p., 4 h following drug administration): decrease
plasma Ang 1-7 level ([2]; 4 h after i.p. injection, 40 mg/kg each, baseline below LLOQ): < 4 pg/mL
more potent in inhibiting APN compared to APA [3]: 40 fold
increase in mean systolic blood pressure compared to vehicle treated animals ([4]; 40 mg/kg daily for 7 days, not significant (p=0.60)): 5.8+/−7.0 mmHg
effect on the activity of human APA in plasma ([5]; 0.1 μM Amastatin, 1 μg/ml APA): did not affect the activity of human APA in plasma
Ang 1-8 level in human heparin plasma ([5]; 0.1 μM Amastatin, no added APA, 100 pg/ml renin, 60 min 37° C., untreated control 412 pg/ml): 752 pg/mL
reduction of Ang 1-8 levels by 1 μg/ml APA in the presence of 0.1 μM Amastatin ([5]; human heparin plasma, 266 pg/ml without Amastatin): 323 pg/mL
Ang 1-7 level [7]: 15 pg/mL
Ang 1-8 level [7]: 1016 pg/mL

Structure (SMILES): NCCCC[C@H](N[C@@H](CCc1ccccc1)C(=O)O)C(=O)N1CCC[C@H]1C(=O)O [Lisinopril]
increase of Ang 1-7 following ACE inhibitor treatment alone ([2]; 4 h after i.p. injection): not observed
equilibrium Ang 1-8 level ([8]; after saline 42.7 pg/ml): 21.5 pg/mL
equilibrium Ang 1-7 level ([8]; after saline below 3.4 pg/ml): 12.1 pg/mL
decrease in systolic blood pressure compared to vehicle treated animals ([4]; 40 mg/kg of each drug daily for 7 days, measured 4 h after dosing, 5 animals per group): 18.6+/−3.9 mmHg
Ang 1-7 level [7]: 153 pg/mL
Ang 1-8 level [7]: 33 pg/mL

Structure (SMILES): N[C@H](CS)CCS(=O)(=O)O [EC-33]
effect on blood pressure [9]: no effect on blood pressure
selectivity for APA over APN [10]: at least 100 fold

Structure (SMILES): C[C@H](CS)C(=O)N1CCC[C@H]1C(=O)O [Captopril]
increase of Ang 1-7 following ACE inhibitor treatment alone ([2]; 4 h after i.p. injection): not observed
Ang 1-7 level [7]: 100 pg/mL
Ang 1-8 level [7]: 29 pg/mL
